pEC50: −log10 of the molar value.
Assays:
[1] = species on record: Cavia porcellus; test: Vasorelaxant activity determined by percentage inhibition of calcium-induced contraction on K+ depolarized guinea pig aortic strip at 5x10E-5 M
[2] = species on record: Cavia porcellus; test: Negative chronotropic activity was determined as percent decrease in the artial rate in spontaneously beating guinea pig artium at 5x10E-5 M (n=6-8)
[3] = species on record: Cavia porcellus; test: Negative inotropic potency as decrease in the developed tension in isolated guinea pig left artium
[4] = species on record: Cavia porcellus; test: Negative inotropic activity as decrease in the developed tension in isolated guinea pig left artium at 5x10E-5 M (n=4-6)
[5] = species on record: Cavia porcellus; test: Negative chronotropic activity was determined as percent decrease in the artial rate in spontaneously beating guinea pig artium at5x10E-5 M (n=6-8)
[6] = species on record: Cavia porcellus; test: Negative inotropic activity as decrease in the developed tension in isolated guinea pig left artium at 10E-5 M (n=4-6)
[7] = species on record: Cavia porcellus; test: Vasorelaxant activity determined by percentage inhibition of calcium-induced contraction on K+ depolarized guinea pig aortic strip
[8] = species on record: Cavia porcellus; test: Negative chronotropic activity was determined as percent decrease in the artial rate in spontaneously beating guinea pig artium at 10E-5 M (n=6-8)
[9] = species on record: Cavia porcellus; test: Negative inotropic activity as decrease in the developed tension in isolated guinea pig left artium 10E-6 M (n=4-6)
[10] = species on record: Cavia porcellus; test: Negative inotropic activity as decrease in the developed tension in isolated guinea pig left artium at 10E-6 M (n=4-6)
[11] = species on record: Cavia porcellus; test: Compound was tested for percent change in maximal rate of the rise in left ventricular pressure in isolated guinea pig atrium
[12] = species on record: Cavia porcellus; test: Compound was tested for percent change in atrioventricular conduction time in isolated guinea pig atrium
[13] = species on record: Cavia porcellus; test: Compound was tested for percent change in heart rate in isolated guinea pig atrium
[14] = species on record: Cavia porcellus; test: Compound was tested for percent change in coronary perfusion pressure in isolated guinea pig atrium
[15] = species on record: Cavia porcellus; test: Negative inotropic activity as decrease in the developed tension in isolated guinea pig left artium at 5x10E-5 M (n=4-6); remark: listed apart in the source
[16] = species on record: Cavia porcellus; test: Negative inotropic activity as decrease in the developed tension in isolated guinea pig left artium 5x10E-5 M (n=4-6)
[17] = species on record: Cavia porcellus; test: Negative inotropic activity as decrease in the developed tension in isolated guinea pig left artium at 5x10E-6 M (n=4-6)
[18] = species on record: Cavia porcellus; test: Negative inotropic activity as decrease in the developed tension in isolated guinea pig left artium at 10E-5 M (n=4-6); remark: listed apart in the source
[19] = species on record: Cavia porcellus; test: Negative inotropic potency is determined by decrease in the developed tension on isolated left ventricular papillary muscle (n=5-7); conditions: Muscle tissue
[20] = species on record: Cavia porcellus; test: Selectivity ratio against negative inotropic potency on left atrium to that of negative inotropic potency on left ventricular papillary muscle in guinea pig
[21] = species on record: Cavia porcellus; test: Negative inotropic potency as coronary perfusion pressure in isolated guinea pig atrium; conditions: Cardiac atrium
[22] = species on record: Cavia porcellus; test: Negative inotropic potency as maximal rate of the rise in left ventricular pressure in isolated guinea pig atrium; conditions: Cardiac atrium

| SMILES | pEC50 [3] | Decrease [1] [%] | Decrease [2] [%] | Decrease [4] [%] | also measured |
| --- | --- | --- | --- | --- | --- |
| C=CCOC1(c2ccc(Br)cc2)SC=C(C)n2c1noc2=O (configuration not stated) | 6.26 | 13 | 13 | 91 | – |
| CC1=CS[C@@](O)(c2ccc(Br)cc2)c2noc(=O)n21 | 6.49 | 12 | 18 | 97 | – |
| CCCCCCOC1(c2ccc(Br)cc2)SC=C(C)n2c1noc2=O (configuration not stated) | 6.08 | 2 | 9 | 81 | – |
| CCCOC1(c2ccc(Cl)cc2)SC=C(C)n2c1noc2=O (configuration not stated) | 6.05 | 20 | 7 | 73 | – |
| CC/C=C/COC1(c2ccc(Br)cc2)SC=C(C)n2c1noc2=O (configuration not stated) | – | 11 | 10 | 43 | – |
| CCCCCCCCCCCCCCCO[C@@]1(c2ccc(Br)cc2)SC=C(C)n2c1noc2=O | 6.38 | – | 12 | 75 | Decrease [7]: 4% |
| CC/C=C/COC1(c2ccc(Cl)cc2)SC=C(C)n2c1noc2=O (configuration not stated) | – | 10 | 8 | 46 | – |
| COC1(c2ccc(Br)cc2)SC=C(C)n2c1noc2=O (configuration not stated) | – | 13 | – | – | Decrease [8]: 9%; Decrease [9]: 38% |
| CCO[C@@]1(c2ccc(Br)cc2)SC=C(C)n2c1noc2=O | 7.40 | 19 | – | – | Decrease [8]: 5%; Decrease [10]: 77%; Change [11]: -14%; Change [12]: -3%; Change [13]: -9%; Change [14]: 32% |
| CCCCCOC1(c2ccc(Cl)cc2)SC=C(C)n2c1noc2=O (configuration not stated) | – | 15 | 14 | – | Decrease [15]: 45% |
| CCCCCCCCCCCCOC1(c2ccc(Cl)cc2)SC=C(C)n2c1noc2=O (configuration not stated) | 6.06 | 5 | 5 | – | Decrease [16]: 56% |
| CC1=CSC(OCC(C)C)(c2ccc(Cl)cc2)c2noc(=O)n21 (configuration not stated) | 6.25 | 37 | 15 | 83 | – |
| CCCCCCCCCCCCO[C@@]1(c2ccc(Br)cc2)SC=C(C)n2c1noc2=O | 6.89 | 3 | 16 | – | Decrease [6]: 59% |
| CCCCCCOC1(c2ccc(Cl)cc2)SC=C(C)n2c1noc2=O (configuration not stated) | 6.19 | 3 | 10 | 68 | – |
| CC1=CS[C@@](OC(C)C)(c2ccc(Cl)cc2)c2noc(=O)n21 | 6.66 | 10 | 10 | – | Decrease [17]: 64% |
| CCCCCOC1(c2ccc(Br)cc2)SC=C(C)n2c1noc2=O (configuration not stated) | – | 3 | 2 | 34 | – |
| CCCCOC1(c2ccc(Br)cc2)SC=C(C)n2c1noc2=O (configuration not stated) | 5.99 | 2 | 18 | 82 | – |
| CC/C=C\COC1(c2ccc(Br)cc2)SC=C(C)n2c1noc2=O (configuration not stated) | 6.20 | 11 | 20 | 81 | – |
| CCCCCCCCCCCCCCCCCCOC1(c2ccc(Cl)cc2)SC=C(C)n2c1noc2=O (configuration not stated) | – | 2 | – | 39 | Decrease [8]: 15% |
| CC1=CSC(OCc2ccccc2)(c2ccc(Cl)cc2)c2noc(=O)n21 (configuration not stated) | 6.13 | 4 | 5 | 63 | – |
| CC1=CSC(OC(C)C)(c2ccc(Br)cc2)c2noc(=O)n21 (configuration not stated) | 6.57 | 18 | 4 | – | Decrease [18]: 58% |
| CCCCCCCC/C=C\CCCCCCCCO[C@@]1(c2ccc(Br)cc2)SC=C(C)n2c1noc2=O | 5.90 | 2 | 9 | 84 | – |
| COc1ccc([C@@H]2Sc3ccccc3N(CCN(C)C)C(=O)[C@@H]2OC(C)=O)cc1 [DILTIAZEM] | 6.10 | 88 | 94 | – | pEC50 [19]: 5.79; Selectivity [20]: 2.04; pEC50 [21]: 7.66; Change [11]: -59%; Change [12]: 34%; Decrease [6]: 78%; Change [13]: -25%; Change [14]: -51%; pEC50 [22]: 8.03 |

More lines, in order of rising pEC50 [3], values ahead:

| pEC50 [3] | SMILES | Decrease [1] [%] | Decrease [2] [%] | Decrease [4] [%] | also measured |
| --- | --- | --- | --- | --- | --- |
| 5.73 | CCCCOC1(c2ccc(Cl)cc2)SC=C(C)n2c1noc2=O (configuration not stated) | 9 | 9 | 62 | – |
| 5.81 | COC1(c2ccc(Cl)cc2)SC=C(C)n2c1noc2=O (configuration not stated) | 14 | 22 | 62 | – |
| 5.88 | CC/C=C\COC1(c2ccc(Cl)cc2)SC=C(C)n2c1noc2=O (configuration not stated) | 10 | 5 | 67 | – |
| 5.95 | CCCCCCCCCCCCCCCOC1(c2ccc(Cl)cc2)SC=C(C)n2c1noc2=O (configuration not stated) | 3 | 9 | 69 | – |
| 6.01 | CCCCCCCCCCCCCCCCCCO[C@@]1(c2ccc(Br)cc2)SC=C(C)n2c1noc2=O | 6 | 5 | 66 | – |
| 6.06 | CCCCCCCC/C=C\CCCCCCCCO[C@@]1(c2ccc(Cl)cc2)SC=C(C)n2c1noc2=O | 7 | 14 | 70 | – |
| 6.10 | CC1=CS[C@@](O)(c2ccc(Cl)cc2)c2noc(=O)n21 | 26 | 18 | – | Decrease [6]: 80% |
| 6.10 | CCCCCCCCCOC1(c2ccc(Cl)cc2)SC=C(C)n2c1noc2=O (configuration not stated) | 4 | 11 | 73 | – |
| 6.23 | CC1=CSC(OCc2ccccc2)(c2ccc(Br)cc2)c2noc(=O)n21 (configuration not stated) | 2 | 4 | 63 | – |
| 6.39 | CCCOC1(c2ccc(Br)cc2)SC=C(C)n2c1noc2=O (configuration not stated) | 14 | – | 69 | Decrease [5]: 12% |
| 6.43 | C=CCOC1(c2ccc(Cl)cc2)SC=C(C)n2c1noc2=O (configuration not stated) | 21 | 13 | 84 | – |
| 6.46 | CCCCCCCCCO[C@@]1(c2ccc(Br)cc2)SC=C(C)n2c1noc2=O | 3 | 7 | 71 | – |
| 6.51 | CC1=CSC(OCC(C)C)(c2ccc(Br)cc2)c2noc(=O)n21 (configuration not stated) | 6 | 11 | – | Decrease [6]: 79% |
| 6.57 | CCO[C@@]1(c2ccc(Cl)cc2)SC=C(C)n2c1noc2=O | 28 | 16 | 53 | – |
| 6.62 | CC1=CS[C@@](OCC2CCCCC2)(c2ccc(Cl)cc2)c2noc(=O)n21 | 5 | 5 | 55 | – |
| 6.72 | CC1=CS[C@@](OCC2CCCCC2)(c2ccc(Br)cc2)c2noc(=O)n21 | 3 | 8 | 78 | – |
